Test results from ChEMBL document CHEMBL3046464, “3D quantitative structureactivity relationship for quinoline, benzimidazole and benzofuran-based analogs as phosphodiesterases IV (PDE-IV) inhibitors” (Med Chem Res, 2013).

Molecular target: Phosphodiesterase 4 (Homo sapiens, UniProt P27815+Q08499+Q07343+Q08493)
Assay: Inhibition of PDE4 in Homo sapiens (human) U937 cells
Type: cell-based
Details: u-937

SMILES	pIC50
COc1ccc(C(=O)Nc2c(Cl)cncc2Cl)c2c1ncn2C	5
CO/N=C(\C)c1ccc2c(C(=O)Nc3c(Cl)cncc3Cl)ccc(OC)c2n1	6.678
